Common to all, as to test: stopped-flow CO2 hydrase assay
Holding throughout (assay type): biochemical
Details in all cases: read-out: [drawing 1] / 1

Assay [1] has as its target T1, hCA IX (Homo sapiens, UniProt Q16790).
T1 construct: gene CA9; recombinant, in-house
The text has this:
stopped-flow CO2 hydrase assay on hCA IX

Assay [2] has as its target T2, hCA XIII (Homo sapiens, UniProt Q8N1Q1).
T2 construct: gene CA13; recombinant, in-house
The text has this: stopped-flow CO2 hydrase assay on hCA XIII

Assay [3] concerns the target T3, hCA VA (Homo sapiens, UniProt P35218).
T3 construct: gene CA5A; recombinant, in-house
The text has this:
stopped-flow CO2 hydrase assay on hCA VA

In assay [4] the target is T4, hCA I (Homo sapiens, UniProt P00915).
T4 construct: gene CA1; recombinant, in-house
The text has this:
stopped-flow CO2 hydrase assay on hCA I

Assay [5] deals with T5, hCA VI (Homo sapiens, UniProt P23280).
T5 construct: gene CA6; recombinant, in-house
An excerpt:
stopped-flow CO2 hydrase assay on hCA VI

Assay [6] deals with T6, hCA IV (Homo sapiens, UniProt P22748).
T6 construct: gene CA4; recombinant, in-house
An excerpt: stopped-flow CO2 hydrase assay on hCA IV

In assay [7] the target is T7, hCA VII (Homo sapiens, UniProt P43166).
T7 construct: gene CA7; recombinant, in-house
An excerpt:
stopped-flow CO2 hydrase assay on hCA VII

In assay [8] the target is T8, hCA XII (Homo sapiens, UniProt O43570).
T8 construct: gene CA12; recombinant, in-house
An excerpt:
stopped-flow CO2 hydrase assay on hCA XII

In assay [9] the target is T9, hCA VB (Homo sapiens, UniProt Q9Y2D0).
T9 construct: gene CA5B; recombinant, in-house
An excerpt: stopped-flow CO2 hydrase assay on hCA VB

Assay [10] has as its target T10, hCA XIV (Homo sapiens, UniProt Q9ULX7).
T10 construct: gene CA14; recombinant, in-house
The text has this:
stopped-flow CO2 hydrase assay on hCA XIV

The target of assay [11] is T11, hCA II (Homo sapiens, UniProt P00918).
T11 construct: gene CA2; recombinant, in-house
An excerpt:
stopped-flow CO2 hydrase assay on hCA II

T4 sequence (P00915 2-261): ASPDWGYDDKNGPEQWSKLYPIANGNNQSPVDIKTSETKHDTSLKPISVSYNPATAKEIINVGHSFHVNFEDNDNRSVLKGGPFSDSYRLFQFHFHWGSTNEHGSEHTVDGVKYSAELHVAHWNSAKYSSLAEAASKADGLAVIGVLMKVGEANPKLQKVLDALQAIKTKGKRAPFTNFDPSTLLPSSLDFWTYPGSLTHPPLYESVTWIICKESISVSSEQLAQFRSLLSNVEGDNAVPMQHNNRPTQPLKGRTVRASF
T5 sequence (P23280 18-308): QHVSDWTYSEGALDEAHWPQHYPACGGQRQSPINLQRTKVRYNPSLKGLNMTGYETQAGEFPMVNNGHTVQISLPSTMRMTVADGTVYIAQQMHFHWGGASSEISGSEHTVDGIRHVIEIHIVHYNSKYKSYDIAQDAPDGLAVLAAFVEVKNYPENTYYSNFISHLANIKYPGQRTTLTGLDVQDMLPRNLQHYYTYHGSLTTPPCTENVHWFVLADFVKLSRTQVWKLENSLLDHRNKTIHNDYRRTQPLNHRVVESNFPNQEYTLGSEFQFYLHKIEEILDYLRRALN
T9 sequence (Q9Y2D0 34-317): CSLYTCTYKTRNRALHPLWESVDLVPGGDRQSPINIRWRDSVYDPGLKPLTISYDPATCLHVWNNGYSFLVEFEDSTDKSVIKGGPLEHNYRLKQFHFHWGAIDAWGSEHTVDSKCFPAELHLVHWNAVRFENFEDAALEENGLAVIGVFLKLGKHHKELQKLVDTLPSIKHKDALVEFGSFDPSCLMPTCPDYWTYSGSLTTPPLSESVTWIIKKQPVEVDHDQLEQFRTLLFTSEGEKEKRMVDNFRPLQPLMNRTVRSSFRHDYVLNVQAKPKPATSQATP
T8 sequence (O43570 25-354): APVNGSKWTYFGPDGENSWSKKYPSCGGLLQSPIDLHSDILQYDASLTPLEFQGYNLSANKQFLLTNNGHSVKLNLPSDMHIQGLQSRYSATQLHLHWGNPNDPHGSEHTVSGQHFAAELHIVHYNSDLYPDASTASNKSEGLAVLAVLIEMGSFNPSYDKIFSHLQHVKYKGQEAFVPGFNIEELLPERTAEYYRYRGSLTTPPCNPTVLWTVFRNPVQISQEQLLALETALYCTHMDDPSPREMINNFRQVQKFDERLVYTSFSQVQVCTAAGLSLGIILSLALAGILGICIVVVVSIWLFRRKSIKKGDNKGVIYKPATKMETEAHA
T3 sequence (P35218 39-305): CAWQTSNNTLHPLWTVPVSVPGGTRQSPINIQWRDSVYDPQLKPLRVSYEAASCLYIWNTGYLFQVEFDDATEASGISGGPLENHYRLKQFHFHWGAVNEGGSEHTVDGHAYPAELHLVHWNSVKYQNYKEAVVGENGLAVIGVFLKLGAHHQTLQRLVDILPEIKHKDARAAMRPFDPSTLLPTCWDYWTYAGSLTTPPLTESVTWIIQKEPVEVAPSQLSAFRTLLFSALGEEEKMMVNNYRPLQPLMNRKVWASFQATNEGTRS
T6 sequence (P22748 19-284): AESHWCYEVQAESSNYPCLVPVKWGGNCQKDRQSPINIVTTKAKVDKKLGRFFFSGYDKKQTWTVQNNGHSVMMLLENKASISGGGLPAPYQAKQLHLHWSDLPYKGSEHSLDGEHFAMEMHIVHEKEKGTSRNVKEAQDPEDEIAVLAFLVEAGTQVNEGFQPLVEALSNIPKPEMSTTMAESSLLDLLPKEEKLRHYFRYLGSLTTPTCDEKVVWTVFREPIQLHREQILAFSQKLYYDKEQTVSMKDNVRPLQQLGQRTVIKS
T10 sequence (Q9ULX7 16-290 limits assumed): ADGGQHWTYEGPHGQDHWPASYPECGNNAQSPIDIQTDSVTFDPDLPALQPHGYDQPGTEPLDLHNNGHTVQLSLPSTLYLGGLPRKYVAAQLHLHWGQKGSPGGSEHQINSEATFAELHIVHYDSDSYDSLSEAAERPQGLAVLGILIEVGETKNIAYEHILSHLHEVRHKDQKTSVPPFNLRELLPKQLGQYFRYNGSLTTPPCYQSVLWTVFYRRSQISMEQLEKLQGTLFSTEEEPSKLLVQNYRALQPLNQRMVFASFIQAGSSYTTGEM
T7 sequence (P43166 whole entry): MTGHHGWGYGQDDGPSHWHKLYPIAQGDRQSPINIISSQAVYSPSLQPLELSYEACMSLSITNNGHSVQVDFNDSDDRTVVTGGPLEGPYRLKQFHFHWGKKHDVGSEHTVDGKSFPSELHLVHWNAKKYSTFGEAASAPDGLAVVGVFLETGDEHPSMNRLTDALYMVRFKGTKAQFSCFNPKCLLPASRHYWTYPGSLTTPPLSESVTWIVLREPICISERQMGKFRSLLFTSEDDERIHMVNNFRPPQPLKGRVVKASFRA
T2 sequence (Q8N1Q1 whole entry): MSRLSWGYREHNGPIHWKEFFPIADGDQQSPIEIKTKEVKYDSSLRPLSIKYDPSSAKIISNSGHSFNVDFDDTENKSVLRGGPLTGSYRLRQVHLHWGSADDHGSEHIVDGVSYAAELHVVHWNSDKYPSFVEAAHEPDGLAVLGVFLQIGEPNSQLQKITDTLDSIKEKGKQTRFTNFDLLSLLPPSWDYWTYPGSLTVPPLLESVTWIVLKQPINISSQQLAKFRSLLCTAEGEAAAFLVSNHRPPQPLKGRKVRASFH

In the case of `Cc1cnc(C(=O)O)c[n+]1[O-]` [compound 1, Acipimox], the Ki in assay [1] turned out to be 6.3 µM; in [2], 87 µM; in assay [3], 7.5 µM; in assay [4] it was 3.3 µM; in [5], 7 µM; in assay [6] it was 8.8 µM. In addition, the Ki turned out to be 9.2 µM in [7]; 8.4 µM in assay [8]; 2.8 µM in [9]; 5.9 µM in [10]; 7.5 µM in assay [11].
